Each structure is given as a SMILES string. Bounds are passed on as bounds.

The target in assay [1] is T1, Tyrosine-protein phosphatase non-receptor type 1 [1-298] (Homo sapiens, UniProt P18031).
T1 construct: 1-298
T1 sequence (P18031 whole entry): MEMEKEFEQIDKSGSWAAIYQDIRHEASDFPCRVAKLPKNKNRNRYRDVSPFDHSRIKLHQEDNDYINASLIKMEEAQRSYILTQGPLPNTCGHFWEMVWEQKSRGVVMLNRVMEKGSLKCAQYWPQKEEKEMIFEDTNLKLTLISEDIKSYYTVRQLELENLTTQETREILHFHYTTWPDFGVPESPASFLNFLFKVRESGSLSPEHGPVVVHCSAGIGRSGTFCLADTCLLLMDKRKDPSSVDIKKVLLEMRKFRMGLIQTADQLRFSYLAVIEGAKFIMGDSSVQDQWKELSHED
Description: PTP1B and TCPTP Inhibition Assay. Particulars: pH 7.5; 22 °C. How it is done:
(§1) For each concentration of test compound or DMSO control, the initial rates were used to fit the rectangular hyperbola of Michaelis-Menten by nonlinear regression analysis. The ratio of the apparent Km/Vmax vs inhibitor concentration was plotted, and the Ki was calculated by linear regression to be the negative X-intercept.

Assay [2] concerns the target T2, Tyrosine-protein phosphatase non-receptor type 2 (Homo sapiens, UniProt P17706).
T2 sequence (P17706 whole entry): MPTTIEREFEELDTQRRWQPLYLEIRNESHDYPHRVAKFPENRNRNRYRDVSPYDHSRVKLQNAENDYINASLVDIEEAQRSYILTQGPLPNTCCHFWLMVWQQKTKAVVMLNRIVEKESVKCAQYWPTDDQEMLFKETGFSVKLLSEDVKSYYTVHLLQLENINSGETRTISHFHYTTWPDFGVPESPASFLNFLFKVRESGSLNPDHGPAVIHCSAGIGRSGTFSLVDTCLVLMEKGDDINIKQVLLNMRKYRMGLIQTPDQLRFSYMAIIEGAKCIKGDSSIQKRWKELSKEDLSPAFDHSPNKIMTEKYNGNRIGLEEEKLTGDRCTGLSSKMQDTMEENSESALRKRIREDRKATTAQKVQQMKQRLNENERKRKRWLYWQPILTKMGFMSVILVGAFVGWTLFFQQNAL
The assay is described as follows: PTP1B and TCPTP Inhibition Assay. Particulars: pH 7.5; 22 °C. How it is done: as §1

Compound `COC(=O)c1c(O)cccc1OCC1CC1c1cccc(-c2cc(C(=O)O)no2)c1` (configuration not stated) [5-(3-{2-[3-hydroxy-2-(methoxycarbonyl)phenoxymethyl]cyclopropyl}phenyl)-1,2-oxazole-3-carboxylic acid] gave a Ki in assay [1] of 23 µM.
`COC(=O)c1c(O)cccc1OC/C=C/c1cccc(-c2onc(C(=O)O)c2N)c1` [4-amino-5-{3-[(1E)-3-[3-hydroxy-2-(methoxycarbonyl)phenoxy]prop-1-en-1-yl]phenyl}-1,2-oxazole-3-carboxylic acid] returned a Ki in assay [2] above 30 µM.

The term Ki denotes the dissociation constant of the complex between target and ligand, obtained from inhibition or displacement.
